Source: the supplement of paper PMC10307832

What was measured:
Assay in all cases: relative viability (nuclei count vs DMSO), 5 days (fraction); higher = more cells survive
Palbociclib + Navitoclax = compound: CC(=O)c1c(C)c2cnc(Nc3ccc(N4CCNCC4)cn3)nc2n(C2CCCC2)c1=O [Palbociclib] + CC1(C)CCC(c2ccc(Cl)cc2)=C(CN2CCN(c3ccc(C(=O)NS(=O)(=O)c4ccc(N[C@H](CCN5CCOCC5)CSc5ccccc5)c(S(=O)(=O)C(F)(F)F)c4)cc3)CC2)C1 [Navitoclax] (partner 0.5 µM)
Method in brief: (§1)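 Lung cancer cell lines in 1536-well plates got either a single drug or a fixed anchor-drug dose together with five library-drug doses (not always all listed) in √10 steps, by pin tool, on the day after seeding. Nuclei were counted after 5 days, and relative viability is the treated-to-vehicle ratio of nuclei counts. Values are medians of duplicate plates.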

Palbociclib + Alpelisib = compound: CC(=O)c1c(C)c2cnc(Nc3ccc(N4CCNCC4)cn3)nc2n(C2CCCC2)c1=O [Palbociclib] + Cc1nc(NC(=O)N2CCC[C@H]2C(N)=O)sc1-c1ccnc(C(C)(C)C(F)(F)F)c1 [Alpelisib] (partner 2 µM)
Method in brief: as §1

Palbociclib + Luminespib = compound: CC(=O)c1c(C)c2cnc(Nc3ccc(N4CCNCC4)cn3)nc2n(C2CCCC2)c1=O [Palbociclib] + CCNC(=O)c1noc(-c2cc(C(C)C)c(O)cc2O)c1-c1ccc(CN2CCOCC2)cc1 [Luminespib] (partner 0.01 µM)
Method in brief: as §1

Palbociclib + Lapatinib = compound: CC(=O)c1c(C)c2cnc(Nc3ccc(N4CCNCC4)cn3)nc2n(C2CCCC2)c1=O [Palbociclib] + CS(=O)(=O)CCNCc1ccc(-c2ccc3ncnc(Nc4ccc(OCc5cccc(F)c5)c(Cl)c4)c3c2)o1 [Lapatinib] (partner 2 µM)
Method in brief: as §1

Cell Line	relative viability (Palbociclib + Navitoclax; first compound 0.01 µM)	relative viability (Palbociclib + Navitoclax; first compound 0.03162 µM)	relative viability (Palbociclib + Navitoclax; first compound 0.1 µM)	relative viability (Palbociclib + Navitoclax; first compound 0.3162 µM)	relative viability (Palbociclib + Navitoclax; first compound 1 µM)	relative viability (Palbociclib + Alpelisib; first compound 0.01 µM)	relative viability (Palbociclib + Alpelisib; first compound 0.03162 µM)	relative viability (Palbociclib + Alpelisib; first compound 0.1 µM)	relative viability (Palbociclib + Alpelisib; first compound 0.3162 µM)	relative viability (Palbociclib + Alpelisib; first compound 1 µM)	relative viability (Palbociclib + Luminespib; first compound 0.01 µM)	relative viability (Palbociclib + Luminespib; first compound 0.03162 µM)	relative viability (Palbociclib + Luminespib; first compound 0.1 µM)	relative viability (Palbociclib + Luminespib; first compound 0.3162 µM)	relative viability (Palbociclib + Luminespib; first compound 1 µM)	relative viability (Palbociclib + Lapatinib; first compound 0.01 µM)	relative viability (Palbociclib + Lapatinib; first compound 0.03162 µM)	relative viability (Palbociclib + Lapatinib; first compound 0.1 µM)	relative viability (Palbociclib + Lapatinib; first compound 0.3162 µM)	relative viability (Palbociclib + Lapatinib; first compound 1 µM)
LU99A	0.789	0.677	0.759	0.601	0.522	0.539	0.432	0.425	0.39	0.33	0.254	0.201	0.232	0.251	0.2	0.936	0.539	0.922	0.853	0.577
LXF-289	0.94	0.94	0.937	0.83	0.772	0.99	0.988	1.01	0.923	0.767	0.627	0.71	0.604	0.709	0.554	0.852	0.888	0.838	0.747	0.7
NCI-H23	1.13		0.79	0.789	0.572	0.705		0.585	0.588	0.432	0.216	0.214	0.219	0.196	0.236	1		1.05	0.804	0.589
NCI-H322M	1.14	1.31	1.03	0.964	0.808	0.805	0.895	0.689	0.676	0.496	0.699	0.729	0.647	0.657	0.475	0.637	0.563	0.513	0.482	0.387
NCI-H460	1.08	0.944	0.912	0.662	0.175	0.476	0.413	0.275	0.217	0.0996	0.0282	0.0413	0.0309	0.0231	0.026	0.92	0.813	0.71	0.516	0.207
NCI-H520	1.08	0.719	0.745	0.785	0.481	0.855	0.749	0.503	0.552	0.431	0.203	0.214	0.225	0.216	0.222	0.92	0.556	0.695	0.572	0.243
NCI-H596	0.99	0.945	0.976	0.949	1.1	0.555	0.462	0.498	0.477	0.525	0.91		0.968	0.958	1.04	1.28	1.07	0.974	1.2	1.14
NCI-H647	1.33	0.92	0.759	0.93	0.738	1.33	0.986	0.979	1.02	0.532	0.0934	0.13	0.137	0.209	0.253	1.26	0.956	0.778	0.923	0.525
NCI-H727	0.429	0.406	0.324	0.266	0.326	0.579	0.425	0.348	0.335	0.326	0.309	0.293	0.285	0.352	0.405	0.777	0.555	0.417	0.386	0.436
NCI-H838	1.16	1.03	0.859	0.938	0.423	1.03	0.918	0.829	0.883	0.441	0.274	0.346	0.267	0.257	0.265	0.919	0.927	0.767	0.776	0.276
NCI-H1355	0.943		0.772	0.755	0.597	0.823		0.797	0.779	0.501	0.74	0.776	0.811	0.568	0.521	0.949		0.901	0.793	0.523
NCI-H1395	1.22	1.17	0.924	0.943	0.656	1.05	0.835	0.79	0.875	0.686	0.661	0.561	0.631	0.668	0.587	0.867	0.987	0.943	0.928	0.688
NCI-H1437	1.1	1.04	0.933	0.923	0.563	0.946	1.06	0.857	0.889	0.48	1.16	1.07	0.961	0.89	0.666	0.819	0.755	0.693	0.67	0.36
NCI-H1651	1.13	0.986	0.907	0.992	0.736	1.03	0.823	0.875	0.883	0.624	0.872	0.814	0.774	0.791	0.677	0.613	0.739	0.735	0.699	0.468
NCI-H1666	0.929	0.782	0.792	0.544	0.448	0.976	0.765	0.792	0.611	0.443	0.969	0.886	0.824	0.754	0.542	0.644	0.559	0.419	0.474	0.384
NCI-H1734	0.928	0.779	0.708	0.593	0.487	0.637	0.588	0.539	0.537	0.374	0.251	0.182	0.193	0.197	0.17	1.01	0.575	0.867	0.789	0.531
